Measured values: patent US20090312280A1

Legend:
[1] = target: Bmx (Homo sapiens, UniProt P51813); assay: biochemical kinase screening assay
[2] = target: Rsk3 (Homo sapiens, UniProt Q15349); assay: biochemical
[3] = target: Fgr (Homo sapiens, UniProt P09769); assay: biochemical kinase screening assay
[4] = test system: gemcitabine induced S-Phase arrest; assay: flow cytometry cell cycle / apoptosis analysis; assay type: cell-based
[5] = test system: A431 tumor xenografts; assay: in vivo radio sensitizing study, A431 xenograft; parameters: species or system mice; conditions: for Normalized Tumor Growth Delay: versus drug alone; for Tumor Growth Delay: versus vehicle control
Excerpt: Female Balb/c nude mice (Age 6 weeks) were inoculated on the right hind limb with 3×10^6 A431 cells in PBS and allowed the tumor to grow to a mean tumor volume ˜100 mm^3. The mice were randomized into groups of 10 animals each group.
The unanaesthetized mice were then subjected to radiation. Radiation was delivered using a 6 MeV high dose rate electron beam from a Varian 2100 Linear Accelerator (Palo Alto, Calif.). The dose rate used was 20 Gy/min. The depth-dose characteristics of the electron beam were such that dose uniformity to within ±5 % was obtained over a 10 mm depth of tissue. This was sufficient to cover all tumor irradiated. The tumor was irradiated though a 25 mm square collimator cut from 3 mm thick lead sheet attached to a 6 mm thick Perspex sheet. The separation between the tumor and the lower (Perspex) side of the surface collimator was approximately 25 mm. The apparatus was supported on a plate heated to 37° C. in order to reduce the effects of heat loss in the mice. Radiation doses were calculated and delivered by a senior radiation physicist. Radiotherapy was given as described above on Days 0-4 as 2, 3 or 4 Gy daily fractions.
The solution was prepared immediately prior to dosing and (15 mg/kg) was administered by intraperitoneal injection at 15 mg/kg on Days 0-4 immediately following radiotherapy. The above solution that contains no Compound 1 is considered as the “drug vehicle” or “vehicle”. Drug vehicle was administered at 0.1 ml/10 g body weight on the same schedule.
Each group of mice were treated with Compound 1 only, radiation only, or the combination of Compound 1 and radiation. Animals were sacrificed when Tumor Volume Ratio (TVR) reached or exceeded 4 or if the mouse had lost more than 15% of its baseline body weight at Day 0. Tumor Volume Ratio is defined as the ratio between the tumors volume at a particular time and the baseline tumor volume, which is the tumor volume at Day 0.
Tumor volume was measured three times weekly from day 0 to day 11 and even further to day 23. Tumor volume was measured using electronic calipers and calculated as length/2×width^2. The mean tumor volume was calculated for each group of mice.
Tumor growth delay is defined as the median time in days for tumors to reach a TVR of 4 minus time for vehicle control tumors to reach the same size. Normalized growth delay is defined as the time in days for tumors in combination treated mice to reach TVR of 4 minus time in days for tumors in drug alone treated mice to reach the same size. Enhancement ratio is defined as normalized tumor growth delay in mice treated with drug and radiation divided by tumor growth delay in mice treated with radiation alone.

[6] = target: cSRC (Homo sapiens, UniProt P12931); assay: biochemical kinase screening assay
cSRC, sequence (P12931 whole entry): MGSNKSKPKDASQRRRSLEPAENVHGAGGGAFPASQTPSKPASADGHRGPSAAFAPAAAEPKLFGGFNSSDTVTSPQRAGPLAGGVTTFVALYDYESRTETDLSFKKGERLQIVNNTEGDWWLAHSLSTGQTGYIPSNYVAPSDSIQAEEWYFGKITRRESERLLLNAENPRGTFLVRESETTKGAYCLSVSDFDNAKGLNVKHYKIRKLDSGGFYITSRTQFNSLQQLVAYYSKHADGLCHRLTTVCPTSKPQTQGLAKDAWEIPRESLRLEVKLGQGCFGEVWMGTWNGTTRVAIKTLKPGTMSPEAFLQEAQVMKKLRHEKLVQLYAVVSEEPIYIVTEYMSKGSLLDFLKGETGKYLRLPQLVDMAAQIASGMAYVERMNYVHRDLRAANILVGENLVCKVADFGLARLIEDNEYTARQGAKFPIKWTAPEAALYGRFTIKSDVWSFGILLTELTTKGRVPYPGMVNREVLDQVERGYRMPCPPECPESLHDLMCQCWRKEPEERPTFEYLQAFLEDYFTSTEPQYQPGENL

[7] = target: Blk(m) (Mus musculus, UniProt P16277); assay: biochemical kinase screening assay
Blk(m), sequence (P16277 whole entry): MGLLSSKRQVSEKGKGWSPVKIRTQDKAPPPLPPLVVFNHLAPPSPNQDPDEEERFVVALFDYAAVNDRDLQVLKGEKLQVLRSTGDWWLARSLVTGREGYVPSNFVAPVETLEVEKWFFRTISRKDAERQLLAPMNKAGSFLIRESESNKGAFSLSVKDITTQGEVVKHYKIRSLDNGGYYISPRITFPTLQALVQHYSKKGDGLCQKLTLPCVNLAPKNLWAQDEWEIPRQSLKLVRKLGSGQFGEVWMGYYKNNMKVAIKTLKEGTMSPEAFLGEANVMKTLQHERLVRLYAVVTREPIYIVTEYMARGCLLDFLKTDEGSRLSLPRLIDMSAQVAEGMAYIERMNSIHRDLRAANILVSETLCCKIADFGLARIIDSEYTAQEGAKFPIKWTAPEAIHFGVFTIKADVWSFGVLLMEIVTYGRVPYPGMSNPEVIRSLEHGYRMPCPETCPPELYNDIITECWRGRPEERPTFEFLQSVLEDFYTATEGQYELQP

[8] = test system: K562 (Leukemia); assay: cell survival / MTT combination cytotoxicity; assay type: cell-based, human; conditions: Homo sapiens
[9] = test system: HT29 (Colon); assay: cell survival / MTT combination cytotoxicity; assay type: cell-based, human; conditions: Homo sapiens, HT-29
[10] = target: Flt3 (Homo sapiens, UniProt P36888); assay: biochemical kinase screening assay
[11] = target: Yes (Homo sapiens, UniProt P07947); assay: biochemical kinase screening assay
[12] = test system: PC-3 (Prostate); assay: cell survival / MTT combination cytotoxicity; assay type: cell-based, human; conditions: Homo sapiens
[13] = target: EGFR2 (Homo sapiens, UniProt P35968); assay: biochemical kinase screening assay; conditions: read-out: IC50 (nM), given as Ki
EGFR2, sequence (P35968 20-1356): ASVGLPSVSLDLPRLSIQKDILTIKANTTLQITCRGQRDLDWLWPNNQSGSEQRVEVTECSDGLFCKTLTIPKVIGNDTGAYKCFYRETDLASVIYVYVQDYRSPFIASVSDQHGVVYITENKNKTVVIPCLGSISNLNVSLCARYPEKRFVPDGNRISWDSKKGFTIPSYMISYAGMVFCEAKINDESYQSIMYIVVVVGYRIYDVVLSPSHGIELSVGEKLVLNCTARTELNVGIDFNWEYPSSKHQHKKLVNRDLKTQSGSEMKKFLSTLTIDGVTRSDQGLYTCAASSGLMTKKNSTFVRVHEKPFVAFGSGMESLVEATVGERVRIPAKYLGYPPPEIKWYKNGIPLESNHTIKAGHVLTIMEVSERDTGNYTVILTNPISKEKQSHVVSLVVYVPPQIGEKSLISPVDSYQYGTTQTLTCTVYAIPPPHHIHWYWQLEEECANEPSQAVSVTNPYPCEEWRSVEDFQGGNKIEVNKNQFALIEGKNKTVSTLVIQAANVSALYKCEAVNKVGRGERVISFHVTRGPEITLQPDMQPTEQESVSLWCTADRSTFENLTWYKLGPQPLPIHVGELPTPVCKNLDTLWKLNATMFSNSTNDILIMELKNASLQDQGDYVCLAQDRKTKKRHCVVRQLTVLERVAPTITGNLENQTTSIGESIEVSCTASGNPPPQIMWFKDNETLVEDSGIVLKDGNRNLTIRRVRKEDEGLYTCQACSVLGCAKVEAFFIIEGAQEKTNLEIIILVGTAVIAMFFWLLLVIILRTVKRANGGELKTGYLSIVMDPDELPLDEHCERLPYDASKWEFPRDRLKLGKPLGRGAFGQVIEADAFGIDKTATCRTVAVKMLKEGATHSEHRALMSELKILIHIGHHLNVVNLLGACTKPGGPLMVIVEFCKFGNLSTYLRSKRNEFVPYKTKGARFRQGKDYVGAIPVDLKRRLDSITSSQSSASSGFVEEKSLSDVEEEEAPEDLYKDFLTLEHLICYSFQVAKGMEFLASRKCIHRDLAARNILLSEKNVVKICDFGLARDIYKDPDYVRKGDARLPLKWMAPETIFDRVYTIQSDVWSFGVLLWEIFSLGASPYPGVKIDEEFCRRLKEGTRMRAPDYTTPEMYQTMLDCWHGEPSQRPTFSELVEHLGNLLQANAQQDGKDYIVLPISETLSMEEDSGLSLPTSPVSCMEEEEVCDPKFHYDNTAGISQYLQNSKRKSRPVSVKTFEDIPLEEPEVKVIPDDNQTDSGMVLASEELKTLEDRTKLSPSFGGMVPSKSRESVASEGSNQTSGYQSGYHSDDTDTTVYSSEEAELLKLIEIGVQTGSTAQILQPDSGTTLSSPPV

[14] = test system: G2 checkpoint induced by camptothecin (Histone H3 phosphorylation on Ser10); assay: Histone H3 phosphorylation assay (G2 checkpoint abrogation); assay type: cell-based; conditions: read-out: EC50, abrogation of G2 checkpoint (increase in Histone H3 phosphorylation on Ser10)
[15] = target: TrkA (Homo sapiens, UniProt P04629); assay: biochemical kinase screening assay
[16] = target: Fyn (Homo sapiens, UniProt P06241); assay: biochemical kinase screening assay
Fyn, sequence (P06241 whole entry): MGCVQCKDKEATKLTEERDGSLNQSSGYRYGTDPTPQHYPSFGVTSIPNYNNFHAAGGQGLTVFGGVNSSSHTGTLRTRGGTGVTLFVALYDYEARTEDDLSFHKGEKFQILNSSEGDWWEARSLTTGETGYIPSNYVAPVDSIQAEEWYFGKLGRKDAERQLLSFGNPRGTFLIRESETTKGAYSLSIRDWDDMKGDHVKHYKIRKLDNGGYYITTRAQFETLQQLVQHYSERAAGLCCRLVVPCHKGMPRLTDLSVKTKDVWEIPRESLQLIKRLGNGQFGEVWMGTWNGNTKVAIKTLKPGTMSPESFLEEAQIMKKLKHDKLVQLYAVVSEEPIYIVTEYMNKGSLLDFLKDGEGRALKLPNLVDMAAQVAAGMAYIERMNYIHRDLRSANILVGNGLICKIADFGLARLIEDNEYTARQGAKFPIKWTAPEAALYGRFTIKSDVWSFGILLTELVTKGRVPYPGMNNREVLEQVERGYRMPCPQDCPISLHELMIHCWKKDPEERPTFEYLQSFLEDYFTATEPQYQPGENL

[17] = target: PRK2 (Homo sapiens, UniProt Q16513); assay: biochemical kinase screening assay
PRK2, sequence (Q16513 whole entry): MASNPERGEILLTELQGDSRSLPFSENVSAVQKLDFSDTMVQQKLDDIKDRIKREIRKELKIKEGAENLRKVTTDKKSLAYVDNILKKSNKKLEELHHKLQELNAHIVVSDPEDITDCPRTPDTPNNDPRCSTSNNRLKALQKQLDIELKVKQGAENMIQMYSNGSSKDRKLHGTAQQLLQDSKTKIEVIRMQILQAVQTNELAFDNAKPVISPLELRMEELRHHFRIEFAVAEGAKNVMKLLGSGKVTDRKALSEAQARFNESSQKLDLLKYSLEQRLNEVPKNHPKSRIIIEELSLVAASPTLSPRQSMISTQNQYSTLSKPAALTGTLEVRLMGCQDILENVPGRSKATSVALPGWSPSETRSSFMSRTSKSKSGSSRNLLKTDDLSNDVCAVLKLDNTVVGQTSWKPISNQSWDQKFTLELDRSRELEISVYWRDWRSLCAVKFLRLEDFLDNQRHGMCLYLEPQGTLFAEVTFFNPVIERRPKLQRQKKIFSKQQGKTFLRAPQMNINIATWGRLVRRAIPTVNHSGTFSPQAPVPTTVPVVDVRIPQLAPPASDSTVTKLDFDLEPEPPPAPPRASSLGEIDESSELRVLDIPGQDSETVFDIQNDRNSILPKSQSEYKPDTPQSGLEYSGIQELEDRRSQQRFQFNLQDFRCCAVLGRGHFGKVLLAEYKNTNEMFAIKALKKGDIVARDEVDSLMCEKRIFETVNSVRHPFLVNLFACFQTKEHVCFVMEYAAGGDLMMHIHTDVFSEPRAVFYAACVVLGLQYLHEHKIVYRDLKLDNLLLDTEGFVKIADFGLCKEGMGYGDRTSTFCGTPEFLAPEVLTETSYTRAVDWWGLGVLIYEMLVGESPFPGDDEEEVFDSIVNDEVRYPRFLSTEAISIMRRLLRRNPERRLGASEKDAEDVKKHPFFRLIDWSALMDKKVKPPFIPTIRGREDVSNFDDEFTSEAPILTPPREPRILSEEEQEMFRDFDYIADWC

[18] = target: PDGFRa (Homo sapiens, UniProt P16234); assay: biochemical kinase screening assay
PDGFRa, sequence (P16234 24-1089): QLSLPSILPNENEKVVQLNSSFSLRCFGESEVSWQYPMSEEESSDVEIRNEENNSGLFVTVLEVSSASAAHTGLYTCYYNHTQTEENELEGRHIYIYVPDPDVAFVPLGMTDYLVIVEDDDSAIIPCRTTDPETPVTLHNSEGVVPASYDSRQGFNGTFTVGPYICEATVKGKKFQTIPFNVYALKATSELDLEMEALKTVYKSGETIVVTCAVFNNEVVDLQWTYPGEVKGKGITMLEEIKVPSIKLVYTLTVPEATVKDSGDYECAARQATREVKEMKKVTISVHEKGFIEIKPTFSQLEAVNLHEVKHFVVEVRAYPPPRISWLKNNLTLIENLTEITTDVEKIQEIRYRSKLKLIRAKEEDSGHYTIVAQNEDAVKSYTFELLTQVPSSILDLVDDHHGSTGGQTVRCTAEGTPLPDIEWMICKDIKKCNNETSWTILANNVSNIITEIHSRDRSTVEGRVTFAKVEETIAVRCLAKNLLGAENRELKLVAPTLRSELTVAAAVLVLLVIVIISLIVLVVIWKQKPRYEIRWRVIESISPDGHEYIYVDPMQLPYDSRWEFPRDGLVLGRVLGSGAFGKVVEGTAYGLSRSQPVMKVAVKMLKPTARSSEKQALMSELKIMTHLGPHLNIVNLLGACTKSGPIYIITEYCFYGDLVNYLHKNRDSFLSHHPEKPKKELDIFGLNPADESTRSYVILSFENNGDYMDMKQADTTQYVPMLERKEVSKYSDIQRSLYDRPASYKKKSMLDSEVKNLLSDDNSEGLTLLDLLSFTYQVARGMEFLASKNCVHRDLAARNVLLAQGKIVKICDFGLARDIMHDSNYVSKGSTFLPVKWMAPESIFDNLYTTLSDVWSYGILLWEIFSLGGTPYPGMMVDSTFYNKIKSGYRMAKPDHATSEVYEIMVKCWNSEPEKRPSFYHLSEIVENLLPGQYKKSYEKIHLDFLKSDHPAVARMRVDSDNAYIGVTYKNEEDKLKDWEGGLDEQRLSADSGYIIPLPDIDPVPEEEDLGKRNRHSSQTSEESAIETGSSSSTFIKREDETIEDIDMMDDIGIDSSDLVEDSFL

[19] = Compound 1 15 mg/kg IP plus Radiation (2 Gy × 5)
[20] = Compound 1 15 mg/kg IP plus Radiation (3 Gy × 5)
[21] = Compound 1 15 mg/kg IP plus Radiation (4 Gy × 5)
[22] = Compound 1 alone, 15 mg/kg IP Days 0-4

Cn1cc(-c2[nH]c3cc(NC(=O)[C@H](N)C4CCCCC4)cc4c3c2C=NNC4=O)cn1 [Compound 1]
IC50 [1]: 233 nM
IC50 [2]: 171 nM
IC50 [3]: 153 nM
S-Phase arrest by flow cytometry ([4]; combination with gemcitabine): abrogation of gemcitabine induced S-Phase arrest
apoptotic cells by flow cytometry ([4]; gemcitabine + Compound 1 compared with gemcitabine alone): significant increase in apoptotic cells
effect on cell cycle ([4]; in the absence of DNA damage): no effect on cell cycle
Median time to TVR = 4 [5, 19]: 11.1 days
Normalized Tumor Growth Delay [5, 19]: 3.75 days
Tumor Growth Delay [5, 19]: 2.7 days
Median time to TVR = 4 [5, 20]: 15.1 days
Normalized Tumor Growth Delay [5, 20]: 7.75 days
Tumor Growth Delay [5, 20]: 6.7 days
Median time to TVR = 4 [5, 21]: 13 days
Normalized Tumor Growth Delay [5, 21]: 5.65 days
Tumor Growth Delay [5, 21]: 4.6 days
Median time to TVR = 4 [5, 22]: 7.35 days
Tumor Growth Delay [5, 22]: -1.05 days
mean tumor volume ([5]; day 0, 2 Gy + Cmpd 1 15 mg/kg IP, Days 0-4): 94.51 mm^3
mean tumor volume ([5]; day 0, 3 Gy + Cmpd 1 15 mg/kg IP, Days 0-4): 104.26 mm^3
mean tumor volume ([5]; day 0, 4 Gy + Cmpd 1 15 mg/kg IP, Days 0-4): 101.97 mm^3
mean tumor volume ([5]; day 0, Cmpd 1 only, 15 mg/kg IP Days 0-4): 104.23 mm^3
mean tumor volume ([5]; day 2, 2 Gy + Cmpd 1 15 mg/kg IP, Days 0-4): 145.53 mm^3
mean tumor volume ([5]; day 2, 3 Gy + Cmpd 1 15 mg/kg IP, Days 0-4): 149.88 mm^3
mean tumor volume ([5]; day 2, 4 Gy + Cmpd 1 15 mg/kg IP, Days 0-4): 150.81 mm^3
mean tumor volume ([5]; day 2, Cmpd 1 only, 15 mg/kg IP Days 0-4): 158.07 mm^3
mean tumor volume ([5]; day 4, 2 Gy + Cmpd 1 15 mg/kg IP, Days 0-4): 198.57 mm^3
mean tumor volume ([5]; day 4, 3 Gy + Cmpd 1 15 mg/kg IP, Days 0-4): 210.23 mm^3
mean tumor volume ([5]; day 4, 4 Gy + Cmpd 1 15 mg/kg IP, Days 0-4): 209.44 mm^3
mean tumor volume ([5]; day 4, Cmpd 1 only, 15 mg/kg IP Days 0-4): 242.46 mm^3
mean tumor volume ([5]; day 7, 2 Gy + Cmpd 1 15 mg/kg IP, Days 0-4): 255.23 mm^3
mean tumor volume ([5]; day 7, 3 Gy + Cmpd 1 15 mg/kg IP, Days 0-4): 200.48 mm^3
mean tumor volume ([5]; day 7, 4 Gy + Cmpd 1 15 mg/kg IP, Days 0-4): 307.93 mm^3
mean tumor volume ([5]; day 7, Cmpd 1 only, 15 mg/kg IP Days 0-4): 418.28 mm^3
mean tumor volume ([5]; day 9, 2 Gy + Cmpd 1 15 mg/kg IP, Days 0-4): 339.76 mm^3
mean tumor volume ([5]; day 9, 3 Gy + Cmpd 1 15 mg/kg IP, Days 0-4): 164.45 mm^3
mean tumor volume ([5]; day 9, 4 Gy + Cmpd 1 15 mg/kg IP, Days 0-4): 294.63 mm^3
mean tumor volume ([5]; day 9, Cmpd 1 only, 15 mg/kg IP Days 0-4): 580.35 mm^3
mean tumor volume ([5]; day 11, 2 Gy + Cmpd 1 15 mg/kg IP, Days 0-4): 401.96 mm^3
mean tumor volume ([5]; day 11, 3 Gy + Cmpd 1 15 mg/kg IP, Days 0-4): 210.35 mm^3
mean tumor volume ([5]; day 11, 4 Gy + Cmpd 1 15 mg/kg IP, Days 0-4): 487.78 mm^3
mean tumor volume ([5]; day 11, Cmpd 1 only, 15 mg/kg IP Days 0-4): 790.82 mm^3
mean tumor volume ([5]; day 14, 2 Gy + Cmpd 1 15 mg/kg IP, Days 0-4): 644.80 mm^3
mean tumor volume ([5]; day 14, 3 Gy + Cmpd 1 15 mg/kg IP, Days 0-4): 283.51 mm^3
mean tumor volume ([5]; day 14, 4 Gy + Cmpd 1 15 mg/kg IP, Days 0-4): 815.01 mm^3
mean tumor volume ([5]; day 16, 3 Gy + Cmpd 1 15 mg/kg IP, Days 0-4): 408.01 mm^3
mean tumor volume ([5]; day 18, 3 Gy + Cmpd 1 15 mg/kg IP, Days 0-4): 433.83 mm^3
mean tumor volume ([5]; day 21, 3 Gy + Cmpd 1 15 mg/kg IP, Days 0-4): 395.17 mm^3
mean tumor volume ([5]; day 23, 3 Gy + Cmpd 1 15 mg/kg IP, Days 0-4): 513.31 mm^3
IC50 [6]: 442 nM
IC50 [7]: 365 nM
IC50 [8]: 420 nM
IC50 [9]: 1800 nM
IC50 [10]: 25 nM
IC50 [11]: 14 nM
IC50 [12]: 1600 nM
Ki [13]: 8 nM
EC50 [14]: 45 nM
IC50 [15]: 1270 nM
IC50 [16]: 953 nM
IC50 [17]: 1980 nM
IC50 [18]: 2810 nM
